Earlier results as cited in patent publication US8378072B2, “Methods for designing and synthesizing directed sequence polymer compositions via the directed expansion of epitope permeability” (Declion Pharmaceuticals, Inc., priority 2006, dated 2013).

Experiments:
[1] = limited human trials; Kim et al. Clinical Immunology 2002
[2] = Raz et al., Lancet 2001
[3] = YFAK input ratio of 1:1:1:1 compared to input ratio of 1:1:10:6; Rasmussen et al.
[4] = compared with COP-1

For “AKPVVHLFANIVTPRTP [altered peptide ligand (APL) made from MBP83-99, placed into limited human trials]”, the “clinical efficacy by evaluation using MRI” value [1] is listed as “clinically ineffective”.
In the case of VLGGGVALLRVIPALDSLTPANED [p277], the “activity in the context of Type I diabetes” value [2] is given as “apparent activity”.
For “YFAK: random sequence polymer consisting of the amino acids Y, F, A, and K”, the “eliciting a recall response” value [3] is given as “not effective” and the “efficacy in EAE” value [4] is given as “better efficacy”.
